Results on 31 molecules are retold here after ChEMBL document CHEMBL1201862, “PubChem BioAssay data set” (2004).

Experiment [1] has as its target FAD-linked sulfhydryl oxidase ALR (Homo sapiens, UniProt P55789). Put plainly: inhibitors of human ALR sulfhydryl oxidase, dose response, biochemical, H2O2 detection, luminescence, cherry-pick (AID 493248).
Experiment [2] has as its target T1, Short transient receptor potential channel 4 (Mus musculus, UniProt Q9QUQ5).
T1 sequence (Q9QUQ5 whole entry): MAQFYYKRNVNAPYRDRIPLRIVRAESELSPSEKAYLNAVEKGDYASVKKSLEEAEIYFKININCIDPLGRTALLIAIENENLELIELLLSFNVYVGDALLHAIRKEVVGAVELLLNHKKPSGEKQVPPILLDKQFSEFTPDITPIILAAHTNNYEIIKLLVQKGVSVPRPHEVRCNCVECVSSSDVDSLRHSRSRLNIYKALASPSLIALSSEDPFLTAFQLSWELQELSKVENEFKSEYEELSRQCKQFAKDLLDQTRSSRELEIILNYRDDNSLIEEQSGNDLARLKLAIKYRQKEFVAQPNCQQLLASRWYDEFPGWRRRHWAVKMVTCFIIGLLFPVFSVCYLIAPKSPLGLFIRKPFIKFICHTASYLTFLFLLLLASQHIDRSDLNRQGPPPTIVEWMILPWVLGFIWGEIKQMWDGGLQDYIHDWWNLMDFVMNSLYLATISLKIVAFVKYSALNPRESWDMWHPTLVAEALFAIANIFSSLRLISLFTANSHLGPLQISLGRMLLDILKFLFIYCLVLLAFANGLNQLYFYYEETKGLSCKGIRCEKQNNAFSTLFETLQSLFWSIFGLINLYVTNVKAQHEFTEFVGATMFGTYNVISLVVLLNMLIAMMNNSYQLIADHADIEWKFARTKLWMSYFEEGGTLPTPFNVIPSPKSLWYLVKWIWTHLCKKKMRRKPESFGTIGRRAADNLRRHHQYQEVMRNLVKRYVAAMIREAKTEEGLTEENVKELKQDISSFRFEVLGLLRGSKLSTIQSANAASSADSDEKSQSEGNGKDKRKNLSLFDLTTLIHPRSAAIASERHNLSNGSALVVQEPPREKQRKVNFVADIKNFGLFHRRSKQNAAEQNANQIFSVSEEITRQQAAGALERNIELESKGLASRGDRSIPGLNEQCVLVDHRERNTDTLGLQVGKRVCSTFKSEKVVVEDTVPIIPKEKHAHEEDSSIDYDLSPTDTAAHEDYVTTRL
Put plainly: mouse TRPC4 channel activators, dose response, cell-based, HEK293 TRPC4/mu-opioid, Fluo-4 calcium (AID 434937). It counts as functional.

Experiment [3] addresses T2, Rac GTPase-activating protein 1 (Homo sapiens, UniProt Q9H0H5).
T2 sequence (Q9H0H5 whole entry): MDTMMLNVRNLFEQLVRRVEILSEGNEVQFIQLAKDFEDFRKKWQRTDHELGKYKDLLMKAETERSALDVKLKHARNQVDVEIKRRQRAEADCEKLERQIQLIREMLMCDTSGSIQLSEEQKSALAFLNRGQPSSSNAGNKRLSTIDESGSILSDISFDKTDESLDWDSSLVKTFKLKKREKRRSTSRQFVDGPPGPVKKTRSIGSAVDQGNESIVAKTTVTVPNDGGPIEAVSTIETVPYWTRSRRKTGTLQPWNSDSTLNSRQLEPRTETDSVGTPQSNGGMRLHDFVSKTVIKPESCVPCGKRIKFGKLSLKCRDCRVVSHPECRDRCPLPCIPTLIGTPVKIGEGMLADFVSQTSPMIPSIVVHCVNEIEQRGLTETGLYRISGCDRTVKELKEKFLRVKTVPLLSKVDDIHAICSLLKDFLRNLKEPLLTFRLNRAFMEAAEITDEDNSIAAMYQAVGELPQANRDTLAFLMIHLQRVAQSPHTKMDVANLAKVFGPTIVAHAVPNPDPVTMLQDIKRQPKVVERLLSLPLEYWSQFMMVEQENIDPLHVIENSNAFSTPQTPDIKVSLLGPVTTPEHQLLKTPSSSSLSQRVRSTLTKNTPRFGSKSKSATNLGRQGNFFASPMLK
Put plainly: MgcRacGAP GTPase-activating activity inhibitors, confirmation, biochemical, ADP Hunter fluorescence, primary and confirmatory (AID 624330). Format: functional.

Experiment [4] is described as follows: inhibitors of firefly luciferase expression or activity, dose response, H4 neuroglioma cells, luminescence (AID 1990). Format: functional, cell-based.
A short description of experiment [5]: Luminescence Cell-Based Dose Response HTS to Identify Inhibitors of 5'UTR Stem-Loop Driven Prion Protein mRNA Translation in H4 Neuroglioblastoma Cells. [Related pubchem assays: 1827 (Project Summary), 1813 (Primary HTS)]. It counts as functional.
A short description of experiment [6]: inhibitors of SNCA 5'UTR-driven reporter translation, confirmation, H4 neuroglioma cells, luminescence (AID 1988). Format: functional, cell-based.
Experiment [7] can be described thus: Luminescence Cell-Based Dose Retest to Confirm Inhibitors of Cancer Stem Cells. [Related pubchem assays (depositor defined):AID2717, AID2721]. Particulars: Homo sapiens. It counts as functional.
For experiment [8], the system named is INS1. Put plainly: beta cell apoptosis inhibitors, cytokine rescue, dose response, luminescence, retest (AID 449756).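 Also: cell death triggered by IL-1 beta plus TNF-alpha plus IFN-gamma mixture; protective hits raise ATP signal compared with cytokine alone wells.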 Particulars: Rattus norvegicus. It counts as functional, cell-based.
Experiment [9] is described as follows: Shn3 3'UTR reporter inhibitors, dose response, cell-based, Clone20 osteoblasts, firefly luciferase, cherry-picked (AID 624132).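 Also: firefly luciferase luminescence from reporter carrying the Shn3 3'UTR in osteoblasts.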 Format: functional.
The nature of experiment [10]: HepG2 cell cytotoxicity, dose response, cytotoxicity control for Shn3 inhibitor project, CellTiter-Glo, cherry-picked (AID 624134). It counts as functional, cell-based. For orientation: In ATP-based viability assays light output follows the ATP content of the culture.
Experiment [11] can be described thus: control 3'UTR Renilla luciferase suppression, dose response, counter-screen for Shn3 inhibitor project, cell-based, Clone20-Shn3RL, cherry-picked (AID 624133). It counts as functional.
In experiment [12] the test system is H9c2. Put plainly: cells. Format: functional, cell-based. The settings on record: Rattus norvegicus, H9c2, Myocardium.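 Also: confirmatory concentration-response retest of ultra-high-throughput screening hits for modulation of myocardial damage; cell death induced by hydrogen peroxide oxidative stress; compound pretreatment for 60 min then peroxide exposure for 2 h; potency is for protecting the cells against peroxide damage rather than for killing them.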
The subject of experiment [13] is P388/ADR. Put plainly: cells. Format: functional. Particulars: Mus musculus.
The test system of experiment [14] is SN12K1. Put plainly: cells. Format: functional. The settings on record: Homo sapiens, SN12K1.
Experiment [15] deals with P388. Put plainly: cells. Particulars: Mus musculus, P388. Format: functional.

The structures appear in SMILES notation. The source made the active and inactive calls.

In general, AC50 refers to the concentration giving half of the maximal activity seen. The EC50 is the concentration needed to bring the measured effect to its halfway point. For orientation: IC50 means the concentration at which inhibition is half-maximal. For orientation: GI50 means the concentration that inhibits growth by half.

Chain of FAD-linked sulfhydryl oxidase ALR (P55789 whole entry): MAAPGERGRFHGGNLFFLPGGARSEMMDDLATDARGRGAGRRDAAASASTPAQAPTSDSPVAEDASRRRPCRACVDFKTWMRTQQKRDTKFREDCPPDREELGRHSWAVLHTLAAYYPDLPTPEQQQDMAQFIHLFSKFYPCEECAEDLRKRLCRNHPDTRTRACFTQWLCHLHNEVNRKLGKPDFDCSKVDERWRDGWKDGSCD

Consider `NC(=O)c1ccc(CSc2nc3ccccc3s2)cc1`, for which the concentration at half-maximal activity (AC50) in experiment [1] was 0.73 µM (active).
For the molecule `O=C(NCc1cccnc1)C1CCCN(Cc2cnn(-c3ccccc3)c2-n2cccc2)C1` (stereo unspecified), in [2], the EC50 was 1.68 µM (active).
Same read-out and setting: as for `CCN1CCN(c2ccc(S(=O)(=O)N3CCCCC3)cc2NC(=O)c2cccc(Cl)c2)CC1`, the figure is 3.76 µM (active).
Take `Cc1nc(Cc2nnc(SCC(=O)N3CCN(c4ccc(O)cc4)CC3)o2)cs1`: the IC50 in experiment [3] was 30 µM (active).
As for `Sc1nnc(-c2ccc3ccccc3n2)o1`, the AC50 in [1] was 0.01 µM (active).
Consider `COc1ccc(CNCCC(c2ccc(OC(C)C)cc2)c2ccccc2OC)cc1` (stereo unspecified), for which the EC50 in [4] is 11.4 µM (active); in experiment [5], 113 µM (active); in experiment [6], 8.9 µM (active). In addition, the AC50 was 5.81 µM (active) in experiment [7]; 7.26 µM (active) in [8]; 3.86 µM (active) in experiment [9]; 13.3 µM (active) in [10]; 20.9 µM (active) in experiment [11].
For `COc1cccc(CN(C)C(=O)c2cccc(S(=O)(=O)N3CCN(Cc4ccccc4)CC3)c2)c1OC`, the half-maximal activity concentration (AC50) is 4.94 µM (active) in [9], 63.3 µM (active) in [10] and 8.32 µM (active) in experiment [11].
In the case of `COc1ccc(C(CNCC(O)COc2c(C)ccc(C)c2C)N(C)C)cc1` (stereo unspecified), in experiment [2], the half-maximal effective concentration (EC50) is 1.19 µM (active).
Regarding `CSc1ccc(CN2CCC(C(=O)NCc3ccc(C)cc3)CC2)cc1`, in experiment [3], the IC50 is 108 µM (active).
Take `O=S(=O)(c1ccc2ccccc2c1)N1CCN=C1SCc1cccnc1`: in [1], the AC50 was 0.072 µM (active).
Regarding `O=C(Nc1nc(-c2ccccn2)cs1)c1cccc(S(=O)(=O)N2CCOCC2)c1`, the IC50 in [12] is 21 µM (active). Moreover, the AC50 in experiment [9] is 1.52 µM (active); in [10] it was 5.28 µM (active); in [11], 2.89 µM (active).
Turning to `COc1cc(NC(=O)C(c2ccccc2)c2ccccc2)c(C(=O)O)cc1OC`, in experiment [1], the half-maximal activity concentration (AC50) was 10.2 µM (active).
Consider `Cc1ccccc1OCCn1c(S)nc2c(N)ncnc21`, for which the concentration for half-maximal inhibition (IC50) in [3] was 41.6 µM (active).
As for `c1ccc(CNc2ccc3c(c2)ncn3C2CCCCC2)nc1`, the AC50 in [1] was 1.2 µM (active).
Turning to `COc1cccc(C(c2nnnn2Cc2ccccc2)N2CCN(C3CCCC3)CC2)c1OC` (stereo unspecified), the IC50 in experiment [12] is > 79 µM (inactive).
In the case of `c1ccc2sc(N3CCNCC3)nc2c1`, the concentration for a half-maximal effect (EC50) in [2] is 0.473 µM (active).
Take `CC(C)Oc1ccc(S(=O)(=O)N2CCCCC2)cc1NC(=O)CN1CCCC1c1cccs1` (stereo unspecified): the half-maximal activity concentration (AC50) is 5.76 µM (active) in experiment [8], 7.88 µM (active) in experiment [9], > 70 µM (inactive) in [10] and 20.6 µM (active) in [11].
Turning to `COc1cc(/C=C/C(=O)OCC(=O)Nc2ccc3c(c2)OCO3)ccc1O`, the IC50 in experiment [3] is 48.2 µM (active).
As for `COc1ccc(C(CNC(=O)c2ccc3c(c2)OCCO3)N(C)C)cc1` (stereo unspecified), in experiment [2], the concentration for a half-maximal effect (EC50) was 0.237 µM (active).
In the case of `Cc1ccc(CNc2nc(NCC3CC3)nc3ccsc23)c(C)c1`, the concentration at half-maximal activity (AC50) in [9] was 3.95 µM (active); in [10] it was 40.4 µM (active); in [11], 6.26 µM (active).
Regarding `O=S(=O)(CCBr)CCBr`, the figures for the GI50 in experiment [13], in [14] and in experiment [15] were 2.84 µM (inactive), 6.59 µM (inactive) and 2.13 µM (inactive), respectively.
Consider `COc1ccc(OC)c(/C=N/NC(=O)c2cc3c(OC)c(OC)ccc3[nH]2)c1`, for which the IC50 in experiment [12] was > 79 µM (inactive).
For the molecule `CC(=O)C(=O)NC1/C=C(C)\C=C/C(O)C/C=C(C)\C=C/C(O)CC2OC(=O)C1(C)C(=O)C2C` (stereo unspecified), the values for the GI50 in [13], in [14] and in experiment [15] were 28.4 µM (inactive), > 100 µM (inactive) and 10.4 µM (inactive), respectively.
The corresponding values for `CCN(CC)CCCOC(=O)/C=C/c1c(C)[nH]c(=O)[nH]c1=O` are 426 µM (inactive), > 625 µM (inactive) and > 625 µM (inactive).
In the case of `Cc1nn(-c2ccccc2)c(C)c1-c1cc(C(=O)N/N=C/c2ccc(O)cc2)[nH]n1`, the AC50 in experiment [1] was 4.12 µM (active).
Turning to `CSc1nc(NC2OC(CO)C(O)C(O)C2O)c(N)c(=O)n1C` (stereo unspecified), the GI50 in [13], in [14] and in [15] was > 100 µM (inactive) throughout.
Turning to `O=C(NCCCCCCNC(=O)n1cc(F)c(=O)[nH]c1=O)NCCCOCCOCCOCCOCCOCCOCCOCCOCCOCCOCCOCCOCCOCCOCCOCCOCCOCCOCCOCCOCCOCCCNC(=O)C(O)C(O)C(OC1OC(CO)C(O)C(O)C1O)C(O)CO` (stereo unspecified), the GI50 in experiment [13] was 0.43 µM (active); in experiment [14] it was 6.46 µM (inactive); in [15], 0.566 µM (active).
The corresponding values for `C=C1CC(OC)(C(OC)C(=O)N(C)[C@H]2OCO[C@H]3C2O[C@H](C[C@@H](COC)OC)C(C)(C)C3OC)O[C@H](C)[C@@H]1C` (stereo partly specified) are 5.58 µM (inactive), 10.9 µM (inactive) and 3.58 µM (inactive).
The corresponding values for `COc1cccc2c1C(=N)c1c(O)c3c(c(O)c1C2=O)C[C@@](O)(C(C)=O)C[C@@H]3OC1CC(N)C(O)C(C)O1` (stereo partly specified) are 0.000673 µM (active), 0.124 µM (active) and 0.000159 µM (active).
The corresponding values for `CC(C)[C@](O)(C(=O)OCC1=CC[N+]2([O-])CC[C@@H](O)[C@@H]12)[C@H](C)O` (stereo partly specified) [INDICINE N-OXIDE] are > 8990 µM (inactive), > 10000 µM (inactive) and 6490 µM (inactive).
For `COc1cc(O)c(Cc2ccccc2O)c(O)c1C(=O)CCc1ccccc1` [UVARETIN], the values for the GI50 in experiment [13], in [14] and in [15] were 5.38 µM (inactive), 5.55 µM (inactive) and 4.37 µM (inactive), respectively.
